Results: paper PMC8344233, “Anticancer activity and toxicity of new quaternary ammonium geldanamycin derivative salts and their mixtures with potentiators” (Journal of Enzyme Inhibition and Medicinal Chemistry, 2021)
Values after ≈ are worked out from the molar mass of the structure shown.

How the values were obtained:
HepG2 = test: MTT cytotoxicity assay, HepG2 (1st panel); assay type: cell-based, human; conditions: for IC50: Homo sapiens, HepG2, ± SD, MTT, 72 h; for selectivity index SI (HepG2): IC50 normal cell line CCD39Lu/IC50 HepG2
Procedure: (§1) Cell survival was measured as the percentage absorbance compared to the control (nontreated cells). […]
(§2) SI indexes were calculated from equation SI = IC50 normal cell line HDF/IC50 respective cancerous cell line (Table 2). A beneficial SI > 1.0 indicates a compound with efficacy against tumor cell greater than the toxicity against normal cells.
(§3) All experiments were carried out with human breast adenocarcinoma (MDA-MB-231 and MCF-7), hepatocellular carcinoma (HepG2), human cervical adenocarcinoma (HeLa) cancer cell lines, and human normal lung fibroblast (CCD39Lu) cell line. The cell line was purchased from the European Collection of Cells Cultures (ECACC, Salisbury, UK), and cultured in DMEM with phenol red supplemented with 10% (v/v) FBS, 1% (v/v) penicillin/streptomycin, and 1% (v/v) L-glutamine at 37 °C, in a humidified atmosphere containing 5% CO2.
(§4) The tested compounds were dissolved in DMSO to the final concentration 10 mM and stored […]
(§5) The cytotoxic effect of the tested compounds was determined by MTT assay. MDA-MB-231, MCF-7, HepG2, HeLa, and CCD39Lu cells were seeded in 96 wells plates at density 2x10^4 cells/well and incubated overnight under cell culture condition. Next, cells were treated with tested compounds at concentrations of 10 µM; 5 µM; 2.5 µM; 1.2 µM; 0.6 µM; 0.3 µM; 0.15 […]
(§6) µM. Moreover, GDM (for MCF-7) and 8 (for MCF-7 and MDA-MB-231) due to high cytotoxicity, were additionally tested at a lower concentration range of 2.5 µM; 1.2 µM; 0.6 µM; 0.3 µM; 0.15µM; 0.07 µM; 0.03 µM. DMSO was used as a control, and the concentration […]
(§7) Tested compounds were added to cells in the medium without phenol red. Cells were incubated 72 h at 37 °C in a humidified atmosphere containing 5% CO2.
(§8) Then, the medium was aspirated and MTT solution at a concentration of 0.59 mg/mL in cell culture medium was added to each well. Plates were incubated for 1.5 hours at 37 °C, and then plates were centrifuged for 3 minutes. The formazan crystals were dissolved in 200 µl DMSO and plates were agitated on a plate shaker at 300 –500 rpm for 10 minutes. Absorbance at 570 nm was measured using a plate reader (Biotek Instruments, Elx -800). Data were normalized to the mean absorption of control cells. All experiments were performed at least three times. […]

A-549 = test: SRB cytotoxicity assay, A-549 (2nd panel); assay type: cell-based, human; conditions: for IC50: Homo sapiens, A549, ± SD, SRB, 72 h; for selectivity index SIHDF (A-549): IC50 normal cell line HDF/IC50 A-549
Procedure: (§9) Medium. Human Dermal Fibroblasts cell line (HDF) was cultured in Fibroblast Basal Medium.
(§10) Each medium was supplemented with 10% fetal bovine serum, 1% L-glutamine, and 1% penicillin/streptomycin solution. The cell lines were kept in the incubator at 37◦C. The optimal plating density of cell lines was determined to be 5 × 104. All the cell lines and mediums were obtained from American Type Culture Collection (ATCC) supplied by LGC-Standards. The protein-staining SRB (Sigma-Aldrich) microculture colorimetric assay, developed by the National Cancer Institute (USA) for in vitro antitumor screening was used in this study, to estimate the cell number by providing a sensitive index of total cellular protein content, being linear to cell density. The monolayer cell culture was trypsinized and the cell count was adjusted to 5 × 10^4 cells. To each well of the 96 well microtiter plate, 0.1 mL of the diluted cell suspension (approximately […]) was added. After 24 hours, when a partial monolayer was formed, the supernatant was washed out and 100 μL of six different compound concentrations (0.1, 0.2, 1, 2, 10, and 20 μM) were added to the cells in microtitre plates. The tested compounds were dissolved in DMSO (containing 10 % of water) (100 μL) and the […]
(§11) lines. The cells were exposed to compounds for 72 hours at 37 °C in a humidified atmosphere (90% RH) containing 5% CO2. After that, 25 μL of 50 % trichloroacetic acid was added to the wells and the plates were incubated for 1 hour at 4◦C. The plates were then washed out with the distilled water to remove traces of medium and next dried by the air. The air-dried plates were stained with 100 μL of 0.4% sulforhodamine B (prepared in 1 % acetic acid) and kept for 30 minutes at room temperature. The unbound dye was removed by rapidly washing with 1% […]
(§12) acetic acid and then air dried overnight. The protein-bound dye was dissolved in 100 μL of 10 mM unbuffered Tris base (pH 10.5) for optical density determination at 490 nm. All cytotoxicity experiments were performed three times. Cell survival was measured as the percentage absorbance compared to the control (nontreated cells). Cytarabine (ara-C) and GDM were used as the internal standards. Additionally biological assays were performed in Human Dermal Fibroblasts cell line (HDF) in aim to evaluate cytotoxicity of GDM and its 1-13 analogs in healthy cells. SI indexes were calculated from equation SI = IC50 normal cell line HDF/IC50 respective cancerous cell line (Table 2). A beneficial SI > 1.0 indicates a compound with efficacy against tumor cell greater than the toxicity against normal cells. […]

CCD39Lu = test: MTT cytotoxicity assay, normal lung fibroblasts CCD39Lu; assay type: cell-based; conditions: Fibroblast, ± SD, healthy human lung fibroblasts, 72 h, read-out: IC50 CCD39Lu (toxicity in normal cells)
Procedure: as §1, §2, §3, §4, §5, §6, §7, §8

HeLa = test: MTT cytotoxicity assay, HeLa (1st panel); assay type: cell-based, human; conditions: for IC50: Homo sapiens, HeLa, ± SD, MTT, 72 h; for selectivity index SI (HeLa): IC50 normal cell line CCD39Lu/IC50 HeLa
Procedure: as §1, §2, §3, §4, §5, §6, §7, §8

MDA-MB-231 = test: MTT cytotoxicity assay, MDA-MB-231 (1st panel); assay type: cell-based, human; conditions: for IC50: Homo sapiens, MDA-MB-231, ± SD, MTT, 72 h; for selectivity index SI (MDA-MB-231): IC50 normal cell line CCD39Lu/IC50 MDA-MB-231
Procedure: as §1, §2, §3, §4, §5, §6, §7, §8

HDF = test: SRB cytotoxicity assay, human dermal fibroblasts HDF; assay type: cell-based; conditions: 72 h, ± SD, mixtures equimolar 1:1, read-out: IC50 HDF (toxicity in normal cells)
Procedure: as §9, §10, §11, §12

U-87 = test: SRB cytotoxicity assay, U-87 (2nd panel); assay type: cell-based, human; conditions: for IC50: Homo sapiens, U-87 MG, ± SD, SRB, 72 h; for selectivity index SIHDF (U-87): IC50 normal cell line HDF/IC50 U-87
Procedure: U-87MG cells (glioblastoma cell line) were cultured in Eagle’s Minimal Essential Medium. Human Dermal Fibroblasts cell line (HDF) was cultured in Fibroblast Basal Medium.
as §10, §11, §12

PC-3 = test: SRB cytotoxicity assay, PC-3 (2nd panel); assay type: cell-based, human; conditions: for IC50: Homo sapiens, PC-3, ± SD, SRB, 72 h, mixtures equimolar 1:1; for selectivity index SIHDF (PC-3): IC50 normal cell line HDF/IC50 PC-3
Procedure: as §9, §10, §11, §12

SKOV-3 = test: SRB cytotoxicity assay, SKOV-3 (2nd panel); assay type: cell-based, human; conditions: for IC50: Homo sapiens, SK-OV-3, ± SD, SRB, 72 h, mixtures equimolar 1:1; for selectivity index SIHDF (SKOV-3): IC50 normal cell line HDF/IC50 SKOV-3
Procedure: Human cancer cells SKBR-3 (human breast cancer cell line) and SKOV-3 (ovarian cancer cell line) were cultured in McCoy’s Modified Medium. […]
as §9, §10, §11, §12

physchem = conditions: water, Solubility SH2O

Row | Compound | IC50 (HepG2) [µM] | selectivity index SI (HepG2) (HepG2) | IC50 (A-549) [µM] | selectivity index SIHDF (A-549) (A-549) | IC50 (CCD39Lu) [µM] | IC50 (HeLa) [µM] | selectivity index SI (HeLa) (HeLa) | IC50 (MDA-MB-231) [µM] | selectivity index SI (MDA-MB-231) (MDA-MB-231) | CC50 (HDF) [µM] | IC50 (U-87) [µM] | selectivity index SIHDF (U-87) (U-87) | IC50 (PC-3) [µM] | selectivity index SIHDF (PC-3) (PC-3) | IC50 (SKOV-3) [µM] | selectivity index SIHDF (SKOV-3) (SKOV-3) | solubility (physchem) [mg/mL]
1 | CO[C@H]1/C=C\C=C(/C)C(=O)NC2=CC(=O)C(NC3CCC3)=C(C[C@@H](C)C[C@H](OC)[C@H](O)[C@@H](C)/C=C(\C)[C@@H]1OC(N)=O)C2=O [Compound 1] | 1.75 ± 0.04 | > 5.71 | 9.01 ± 0.63 | 3.33 | > 10 | 1.67 ± 0.54 | > 5.99 | 2.45 ± 0.78 | > 4.08 | 30 | 7.32 ± 0.49 | 4.10 | 7.02 ± 0.06 | 4.28 | 8.04 ± 0.24 | 3.73 | 
2 | CO[C@H]1/C=C\C=C(/C)C(=O)NC2=CC(=O)C(NC3CN4CCC3CC4)=C(C[C@@H](C)C[C@H](OC)[C@H](O)[C@@H](C)/C=C(\C)[C@@H]1OC(N)=O)C2=O (stereo partly drawn) [Compound 8] | 1.25 ± 0.22 | 0.70 | 0.94 ± 0.03 |  | 0.87 ± 0.22 | 1.06 ± 0.26 | 0.82 | 0.14 ± 0.01 | 6.21 | 3.22 ± 0.18 | 1.08 ± 0.16 |  | 1.47 ± 0.31 | 2.19 | 1.16 ± 0.92 | 2.78 | 0.15 (≈ 229 µM)
3 | C=CC[N+]12CCC(CC1)C(NC1=C3C[C@@H](C)C[C@H](OC)[C@H](O)[C@@H](C)/C=C(\C)[C@H](OC(N)=O)[C@@H](OC)/C=C\C=C(/C)C(=O)NC(=CC1=O)C3=O)C2 (stereo partly drawn) [Compound 9] | > 10 | > 1 | 3.09 ± 0.01 | 1.71 | > 10 | 9.25 ± 0.98 | > 1.08 | 4.65 ± 2.65 | > 2.15 | ~5.29 | 3.69 ± 0.08 | 1.43 | 3.01 ± 0.11 | 1.76 | 3.86 ± 0.05 | 1.37 | 
4 | C/C=C/C[N+]12CCC(CC1)C(NC1=C3C[C@@H](C)C[C@H](OC)[C@H](O)[C@@H](C)/C=C(\C)[C@H](OC(N)=O)[C@@H](OC)/C=C\C=C(/C)C(=O)NC(=CC1=O)C3=O)C2 (stereo partly drawn) [Compound 10] | > 10 | > 1 | 1.29 ± 0.07 | 2.29 | > 10 | 7.43 ± 3.21 | > 1.35 | 4.64 ± 1.51 | > 2.16 | 2.96 ± 0.36 | 1.84 ± 0.11 | 1.61 | 1.88 ± 0.02 | 1.57 | 1.61 ± 0.13 | 1.84 | > 5
5 | CO[C@H]1/C=C\C=C(/C)C(=O)NC2=CC(=O)C(NC3C[N+]4(C/C=C/c5ccccc5)CCC3CC4)=C(C[C@@H](C)C[C@H](OC)[C@H](O)[C@@H](C)/C=C(\C)[C@@H]1OC(N)=O)C2=O (stereo partly drawn) [Compound 13] | > 10 | > 1 | 2.06 ± 0.01 | 1.85 | > 10 | 8.14 ± 0.64 | > 1.23 | 4.66 ± 2.49 | > 2.15 | ~3.81 | 2.26 ± 0.15 | 1.67 | 2.05 ± 0.09 | 1.86 | 2.17 ± 0.06 | 1.76 | > 5
